# According to patent publication US6916607B2, “PEPTIDES AND PO[…] FROM THE SU[…] OF THE RAT COR[…] […] COR[…] USES OF THESE PRODUCTS FOR DIAGNOSIS FOR DETECTION OR T[…]” (Institute Pasteur, priority 1988, dated 2005):
# Test system: mRNA coding for SMR1 in the SMG
# Test: Regulation of the accumulation of mRNA coding for SMR1 in the SMG of the rat by androgens (RNA transfer and hybridization with SMR1 cDNA probe)
# Assay type: in vivo, Wistar rats
# Procedure: 10 weeks old male and female Wistar rats were obtained from Iffa-Credo. The androgens were removed by castration and 10 days later 35 mg of testosterone (Sterandryl retard, Roussel) were injected by the intraperitoneal route in the cases indicated. In the cases indicated, the same dose of testosterone was administered to female rats. 8 weeks old DBA/2 and “Swiss” mice were obtained from the Pasteur Institute.
# The RNA was prepared from rat and mouse tissues as described in the literature (Tronik D. et al. 1987, EMBO J. 6, 983-987). The in vitro translation of the RNAs was carried out by using the mRNA-dependent translation system as a lysate in the presence of mRNA-dependent reticulocytes (Pelham H. RB et al., 1976, Eur. J. Biochem. 67, 247-256). The products were analysed by electrophoresis on a denaturing polyacrylamide-NaDodSO4 gel. […]
# Furthermore, various amounts (as indicated in the figure) of RNA from the SMG of male rats and female rats were subjected to electrophoresis on a 2% agarose-formaldehyde gel, they were transferred to filters and hybridized with the cDNA probe coding for SMR1. […] As is apparent in part B, the mRNA coding for SMR1 accumulates in very large quantities in the SMG of male Wistar rats, since an amount as low as 1.5 ng of total RNA was sufficient to give a hybridization signal. […]
compound,measurement,setting,value
C[C@]12CC[C@H]3[C@@H](CCC4=CC(=O)CC[C@@]43C)[C@@H]1CC[C@@H]2O [testosterone],accumulation of mRNA coding for SMR1 in the SMG,"adult female rats, same dose (35 mg) of testosterone",caused the accumulation of mRNA coding for SMR1 in amounts similar to that observed in the males
same,amount of mRNA coding for SMR1 in the SMG,"castrated male rats, 35 mg testosterone by the intraperitoneal route 10 days after castration",restored the amount of mRNA coding for SMR1 to the same value as that observed in the non-castrated males
